Data as given in US11760755B2, “Hepatitis B antiviral agents” (priority 2019, dated 2023).
Read-outs that look alike come from different tables or passages of the source.

Tests used:
[1] = tested on: HBV; experiment: HepAD38 antiviral assay: reduction of viral product accumulation (virion DNA by qPCR, HBsAg/HBeAg by ELISA); format: cell-based, hepatitis B virus
Description: Methods: HepAD38 cells are maintained as previously reported (Ladner et al, Antimicrob. Agents Chemother. 1997, […], 1715). Briefly, cells are passaged upon attaining confluency in DMEM/F12 media in the presence of 10% FBS, Penn/Strep, 250 μg/mL G418, and 1 μg/ml tetracycline. Novel compounds are screened by first washing cells three times with PBS to remove tetracycline, and plating in 96 well plates at 35,000 cells/well. Compounds dissolved in DMSO are then diluted 1:200 into wells containing cells. Five days after compound addition, material is harvested for analysis. For an extended 8 day analysis, cells are plated and treated as described above, but media and compound are refreshed on d2 and d5 post initial treatment.
On harvest day, virion DNA is obtained by lysing with Sidestep Lysis and Stabilization Buffer and then quantified via quantitative real time PCR. Commercially available ELISA kits are used to quantitate the viral proteins HBsAg (Alpco) or HbeAg (US Biological) by following the manufacturer's recommended protocol after diluting samples to match the linear range of their respective assays. Irrespective of readout, compound concentrations that reduce viral product accumulation in the cell lysates or supernatants by 50% relative to no drug controls (EC50) are reported; EC50 ranges are as follows: A<0.1 μM; B 0.1-1 μM; C>1 μM.

[2] = Compound toxicity, ATPLite total ATP levels; format: cell-based; conditions: human
Description: (§1) Compound toxicity is evaluated by seeding cells at 15,000 cells/well and treating with compound as described above.

[3] = tested on: HepG2; experiment: Compound toxicity, ATPLite total ATP levels; format: cell-based; conditions: human, 3 days
Description: as §1

[4] = Hepatitis B virus, HepAD38 cells, 50% reduction of viral product accumulation relative to no drug controls, class symbols, read-out: HepAD38 EC50
[5] = HepG2 cells, HepG2, three days after compound addition, 50% reduction of total ATP levels (ATPLite), read-out: HepG2 CC50
[6] = Hepatitis B virus, HepAD38 cells, 50% reduction of viral product accumulation relative to no drug controls, numeric bound, read-out: HepAD38 EC50
[7] = Hepatitis B virus, HePAD38, read-out: HepAD38 EC50 (μM)
[8] = read-out: HepAD38 EC50, HepAD38 cells, 50% reduction of viral product accumulation relative to no drug controls, class symbols

Row | SMILES | EC50 [1, 4] [µM] | EC50 [1, 7] [µM] | other results
1 | O=C1CC2CC[C@@H](C1)[C@H]2S(=O)(=O)N[C@H]1CC2=C(c3ccn(C(F)F)n3)[C@H](c3ccc(F)cc3Cl)N=C(c3nccs3)N2C1 [Example 33] | < 0.1 |  | CC50 at 3 days [2, 5]: > 25 µM
2 | O=C(N[C@H]1CC2=C(c3ccn(C(F)F)n3)[C@H](c3ccc(F)cc3Cl)N=C(c3nccs3)N2C1)N1C[C@H]2CC[C@@H](C1)[C@H]2O [Example 7] | 0.1 to 1 |  | 
3 | O=C(N[C@H]1CC2=C(c3ccn(C(F)F)n3)[C@H](c3ccc(F)cc3Cl)N=C(c3nccs3)N2C1)N1[C@@H]2CC[C@H]1C[C@@H](O)C2 [Example 5] |  |  | EC50 [1, 6]: > 0.4 µM
4 | O=S(=O)(N[C@H]1CC2=C(c3ccn(C(F)F)n3)[C@H](c3ccc(F)cc3Cl)N=C(c3nccs3)N2C1)N1CC2CCC(C1)C2(O)c1ccccn1 (stereo partly shown) [Example 14] | < 0.1 |  | 
5 | O=S(=O)(N[C@H]1CC2=C(c3ccn(C(F)F)n3)[C@H](c3ccc(F)cc3Cl)N=C(c3nccs3)N2C1)N1C2CCC1CC(O)(c1ccccn1)C2 (stereo partly shown) [Example 19] |  | < 0.1 | 
6 | O=S(=O)(C[C@H]1CC2=C(c3ccn(C(F)F)n3)[C@H](c3ccc(F)cc3Cl)N=C(c3nccs3)N2C1)N1C2CC[C@H]1C[C@@](O)(c1ccccn1)C2 [Example 38] |  | 0.1 to 1 | 
7 | O=S(=O)(N[C@H]1CC2=C(c3ccn(C(F)F)n3)[C@H](c3ccc(F)cc3Cl)N=C(c3nccs3)N2C1)[C@H]1C2CC[C@H]1C[C@@](O)(c1ccccn1)C2 [Example 34] | < 0.1 |  | 
8 | O=C1C2CCC1CC(S(=O)(=O)N[C@H]1CC3=C(c4ccn(C(F)F)n4)[C@H](c4ccc(F)cc4Cl)N=C(c4nccs4)N3C1)C2 (stereo partly shown) [Example 16] | 0.1 to 1 |  | 
9 | O=C(N[C@H]1CC2=C(c3ccn(C(F)F)n3)[C@H](c3ccc(F)cc3Cl)N=C(c3nccs3)N2C1)N1C[C@H]2CC[C@@H](C1)[C@@H]2O [Example 6] | 0.1 to 1 |  | 
10 | O=S(=O)(NC1CC2CCC(C1)C2O)N[C@H]1CC2=C(c3ccn(C(F)F)n3)[C@H](c3ccc(F)cc3Cl)N=C(c3nccs3)N2C1 (stereo partly shown) [Example 12] | 0.1 to 1 |  | 
11 | O=S(=O)(N[C@H]1CC2=C(c3ccn(C(F)F)n3)[C@H](c3ccc(F)cc3Cl)N=C(c3nccs3)N2C1)N1CC2CCC(C1)C2O (stereo partly shown) [Example 15] | < 0.1 |  | 
12 | O=S(=O)(N[C@H]1CC2=C(c3ccn(C(F)F)n3)[C@H](c3ccc(F)cc3Cl)N=C(c3nccs3)N2C1)N1C2CCC1CC(O)C2 (single isomer, unassigned) [Example 3] |  |  | EC50 [1, 8]: < 0.1 µM; CC50 [3]: > 25000 nM
13 | O=S(=O)(N[C@H]1CC2=C(c3ccn(C(F)F)n3)[C@H](c3ccc(F)cc3Cl)N=C(c3nccs3)N2C1)N1C2CCC1CC(O)(c1nccs1)C2 (stereo partly shown) [Example 20] |  | < 0.1 | 
14 | O=C(N[C@H]1CC2=C(c3ccn(C(F)F)n3)[C@H](c3ccc(F)cc3Cl)N=C(c3nccs3)N2C1)N1CC2CCC(C1)O2 [Example 4] |  |  | EC50 [1, 6]: > 0.4 µM
15 | CC(C)(C)OC(=O)N1C2CCC1CC(NS(=O)(=O)N[C@H]1CC3=C(c4ccn(C(F)F)n4)[C@H](c4ccc(F)cc4Cl)N=C(c4nccs4)N3C1)C2 (stereo partly shown) [Example 11] |  | 0.1 to 1 | 
16 | O=C1NCC2(CC3CCC(C2)N3S(=O)(=O)N[C@H]2CC3=C(c4ccn(C(F)F)n4)[C@H](c4ccc(F)cc4Cl)N=C(c4nccs4)N3C2)O1 (stereo partly shown) [Example 21] |  | < 0.1 | CC50 at 3 days ([2]; HepG2 CC50 (μM)): > 25 µM
17 | O=S(=O)(N[C@H]1CC2=C(c3ccn(C(F)F)n3)[C@H](c3ccc(F)cc3Cl)N=C(c3nccs3)N2C1)N1C2CCC1CC(O)(c1cn(-c3ccccn3)nn1)C2 (stereo partly shown) [Example 24] |  | < 0.1 | CC50 at 3 days ([2]; HepG2 CC50 (μM)): > 25 µM
18 | O=S(=O)(N[C@H]1CC2=C(c3ccn(C(F)F)n3)[C@H](c3ccc(F)cc3Cl)N=C(c3nccs3)N2C1)[C@H]1CC2CCC(C1)[C@]2(O)CO [Example 27] | < 0.1 |  | CC50 at 3 days [2, 5]: > 25 µM

Row | SMILES | EC50 [1, 4] [µM] | EC50 [1, 7] [µM] | other results
19 | C#C[C@]1(O)C2CCC1C[C@@H](S(=O)(=O)N[C@H]1CC3=C(c4ccn(C(F)F)n4)[C@H](c4ccc(F)cc4Cl)N=C(c4nccs4)N3C1)C2 [Example 26] | < 0.1 |  | 
20 | C[C@]1(O)C2CCC1C[C@@H](S(=O)(=O)N[C@H]1CC3=C(c4ccn(C(F)F)n4)[C@H](c4ccc(F)cc4Cl)N=C(c4nccs4)N3C1)C2 [Example 25] | < 0.1 |  | 
21 | O=S(=O)(N[C@H]1CC2=C(c3ccn(C(F)F)n3)[C@H](c3ccc(F)cc3Cl)N=C(c3nccs3)N2C1)N1C2CCC1CC(O)(c1nccs1)C2 (stereo partly shown) [Example 23] |  |  | EC50 [1, 8]: < 0.1 µM; CC50 at 3 days ([2]; HepG2 CC50 (μM)): > 25 µM
22 | O=S(=O)(N[C@H]1CC2=C(c3ccn(C(F)F)n3)[C@H](c3ccc(F)cc3Cl)N=C(c3nccs3)N2C1)N1C2CC[C@H]1C=C(c1cn(-c3ccccn3)nn1)C2 [Example 32] |  | < 0.1 | CC50 at 3 days ([2]; HepG2 CC50 (μM)): > 25 µM
23 | O=S(=O)(N[C@H]1CC2=C(c3ccn(C(F)F)n3)[C@H](c3ccc(F)cc3Cl)N=C(c3nccs3)N2C1)[C@@H]1CC2CC[C@@H](C1)[C@@]2(O)c1cn(-c2ccccn2)nn1 [Example 28] | < 0.1 |  | 
24 | O=S(=O)(N[C@H]1CC2=C(c3ccn(C(F)F)n3)[C@H](c3ccc(F)cc3Cl)N=C(c3nccs3)N2C1)[C@H]1C2CC[C@H]1C[C@@](O)(CO)C2 [Example 35] | < 0.1 |  | CC50 at 3 days [2, 5]: > 25 µM
25 | O=S(=O)(N[C@H]1CC2=C(c3ccn(C(F)F)n3)[C@H](c3ccc(F)cc3Cl)N=C(c3nccs3)N2C1)N1C2CCC1CC(O)C2 (single isomer, unassigned) [Example 1] |  | < 0.1 | CC50 [3]: 10000 to 25000 nM
26 | O=C(N[C@H]1CC2=C(c3ccn(C(F)F)n3)[C@H](c3ccc(F)cc3Cl)N=C(c3nccs3)N2C1)N1[C@@H]2CC[C@H]1C[C@H](O)C2 [Example 8] |  | 0.1 to 1 | 
27 | O=S(=O)(C[C@H]1CC2=C(c3ccn(C(F)F)n3)[C@H](c3ccc(F)cc3Cl)N=C(c3nccs3)N2C1)N1CC2CC[C@@H](C1)[C@]2(O)c1ccccn1 [Example 37] | < 0.1 |  | 
28 | O=C1CC2CCC(C1)N2S(=O)(=O)N[C@H]1CC2=C(c3ccn(C(F)F)n3)[C@H](c3ccc(F)cc3Cl)N=C(c3nccs3)N2C1 [Example 9] |  | < 0.1 | CC50 at 3 days ([2]; HepG2 CC50 (μM)): > 25 µM
29 | C#CC1(O)CC2CCC(C1)N2S(=O)(=O)N[C@H]1CC2=C(c3ccn(C(F)F)n3)[C@H](c3ccc(F)cc3Cl)N=C(c3nccs3)N2C1 (stereo partly shown) [Example 22] |  | < 0.1 | 
30 | O=S(=O)(N[C@H]1CC2=C(c3ccn(C(F)F)n3)[C@H](c3ccc(F)cc3Cl)N=C(c3nccs3)N2C1)N1CC2CCC(C1)O2 [Example 2] | < 0.1 |  | 
31 | O=S(=O)(N[C@H]1CC2=C(c3ccn(C(F)F)n3)[C@H](c3ccc(F)cc3Cl)N=C(c3nccs3)N2C1)[C@H]1CC2CCC(C1)[C@H]2O [Example 17] | < 0.1 |  | CC50 at 3 days [2, 5]: 10 to 25 µM
32 | CN([C@H]1CC2=C(c3ccn(C(F)F)n3)[C@H](c3ccc(F)cc3Cl)N=C(c3nccs3)N2C1)S(=O)(=O)N1C2CC[C@H]1C[C@@](O)(c1nccs1)C2 [Example 36] |  | < 0.1 | CC50 at 3 days ([2]; HepG2 CC50 (μM)): > 25 µM
33 | O=S(=O)(N[C@H]1CC2=C(c3ccn(C(F)F)n3)[C@H](c3ccc(F)cc3Cl)N=C(c3nccs3)N2C1)[C@H]1CC2CCC(C1)[C@]2(O)c1ccccn1 [Example 18] | < 0.1 |  | CC50 at 3 days [2, 5]: 10 to 25 µM
34 | O=S(=O)(N[C@H]1CC2=C(c3ccn(C(F)F)n3)[C@H](c3ccc(F)cc3Cl)N=C(c3nccs3)N2C1)N1C2CCC1CC(F)(F)C2 [Example 10] |  | < 0.1 | 
35 | O=S(=O)(N[C@H]1CC2=C(c3ccn(C(F)F)n3)[C@H](c3ccc(F)cc3Cl)N=C(c3nccs3)N2C1)N1C2CC[C@H]1C[C@](O)(c1cn(-c3ccccn3)nn1)C2 [Example 31] |  | < 0.1 | 
36 | O=S(=O)(N[C@H]1CC2=C(c3ccn(C(F)F)n3)[C@H](c3ccc(F)cc3Cl)N=C(c3nccs3)N2C1)N1C2CCC1CC(O)(Cn1ccnc1)C2 (stereo partly shown) [Example 30] |  | < 0.1 | 
